Earlier results on 29 molecules are cited in paper PMC4411882, “Developmental Potential for Endomorphin Opioidmimetic Drugs” (International Journal of Medicinal Chemistry, 2012).

The target of one data set is μ-opioid receptor (Rattus norvegicus, UniProt P33535). More on the design: gene Oprm1; rat brain P2 synaptosomal preparations; species or system rat brain P2 synaptosomal preparations. Particulars: read-out: Kiμ.
The target of the next data set is δ-opioid receptor (Rattus norvegicus, UniProt P33533). More on the design: gene Oprd1; rat brain P2 synaptosomal preparations; species or system rat brain P2 synaptosomal preparations. The settings on record: read-out: Kiδ.
Sequence of δ-opioid receptor (P33533 whole entry): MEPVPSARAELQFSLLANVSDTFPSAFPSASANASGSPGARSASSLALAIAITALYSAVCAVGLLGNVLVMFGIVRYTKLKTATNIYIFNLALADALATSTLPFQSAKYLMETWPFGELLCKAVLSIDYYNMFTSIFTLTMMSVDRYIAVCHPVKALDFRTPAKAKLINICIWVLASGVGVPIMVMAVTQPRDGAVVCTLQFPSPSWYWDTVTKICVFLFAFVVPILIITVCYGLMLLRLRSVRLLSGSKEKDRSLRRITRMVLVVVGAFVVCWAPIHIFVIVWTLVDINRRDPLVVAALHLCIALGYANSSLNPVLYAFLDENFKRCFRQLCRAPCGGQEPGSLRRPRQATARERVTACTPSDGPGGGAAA
Another data set deals with T1, μ-opioid receptor (GPI) (Cavia porcellus, UniProt P97266).
T1 construct: gene OPRM1; guinea pig ileum (GPI) bioassay
T1 sequence (P97266 whole entry): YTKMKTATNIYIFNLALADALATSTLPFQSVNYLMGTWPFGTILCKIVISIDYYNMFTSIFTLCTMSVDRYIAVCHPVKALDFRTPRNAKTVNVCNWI
Also on record: species or system guinea pig ileum. From the text:
(§1) Therefore, we substituted hydrophobic groups in lieu of the phenethyl group to develop the class of H-Dmt-Pro-Phe-NH-X ligands (Figure 1).

In the next data set the target is T2, δ-opioid receptor (MVD) (Mus musculus, UniProt P32300).
T2 construct: gene Oprd1; mouse vas deferens (MVD) bioassay
T2 sequence (P32300 whole entry): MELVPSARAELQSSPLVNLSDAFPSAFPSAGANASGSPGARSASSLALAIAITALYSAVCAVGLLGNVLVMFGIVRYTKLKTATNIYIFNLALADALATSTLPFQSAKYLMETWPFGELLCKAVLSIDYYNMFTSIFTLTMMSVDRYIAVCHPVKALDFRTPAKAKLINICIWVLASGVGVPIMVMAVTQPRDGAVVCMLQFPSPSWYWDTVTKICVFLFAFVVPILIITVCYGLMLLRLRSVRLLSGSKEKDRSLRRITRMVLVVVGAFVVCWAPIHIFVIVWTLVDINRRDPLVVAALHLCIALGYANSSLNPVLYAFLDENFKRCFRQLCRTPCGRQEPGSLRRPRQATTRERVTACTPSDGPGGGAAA
More on the design: species or system mouse vas deferens.
Description: as §1

Where a SMILES comes first, the peptide text is derived from it. [ ]: non-standard residue; d: D form. The star is where a group is joined. Dmt = Cc1cc(O)cc(C)c1C[CH](N)C(=O)O; NHPhenethyl = c1ccc(CCN*)cc1; NHBn = c1ccc(CN*)cc1; NHPh = c1ccc(N*)cc1

Sequence of μ-opioid receptor (P33535 whole entry): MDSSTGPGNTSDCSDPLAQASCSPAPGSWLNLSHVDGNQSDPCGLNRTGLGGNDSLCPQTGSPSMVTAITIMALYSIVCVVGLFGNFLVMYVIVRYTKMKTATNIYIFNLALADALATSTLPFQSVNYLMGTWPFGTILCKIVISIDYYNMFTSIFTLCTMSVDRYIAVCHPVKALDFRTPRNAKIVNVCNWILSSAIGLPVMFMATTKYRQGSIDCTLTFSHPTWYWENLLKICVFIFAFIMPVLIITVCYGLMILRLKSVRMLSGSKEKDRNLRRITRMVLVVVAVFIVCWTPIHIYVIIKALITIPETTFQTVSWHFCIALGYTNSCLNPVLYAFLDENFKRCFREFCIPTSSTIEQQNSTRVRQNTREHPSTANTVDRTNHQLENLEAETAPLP

In the case of `NC(=O)C(Cc1ccccc1)NC(=O)C(Cc1ccccc1)NC(=O)C1CCCN1C(=O)C(N)Cc1ccc(O)cc1` [compound 12, L-D-L-L (EM-2), [D-Pro^2]EM-2], on μ-opioid receptor, the Ki was 512 nM.

For `NC(=O)[C@H](Cc1ccccc1)NC(=O)[C@@H]1CCCN1C(=O)[C@@H](N)Cc1ccc(O)cc1` [compound 18, H-Tyr-Pro-Phe-NH2] (H-Tyr-Pro-Phe-NH2), the results for the Ki on δ-opioid receptor and at μ-opioid receptor were 15900 nM and 46.1 nM, respectively.

What is called IC50 is the concentration needed to halve the response being measured. As for `Cc1cc(O)cc(C)c1C[C@H](N)C(=O)N1CCC[C@H]1C(=O)N[C@@H](Cc1c[nH]c2ccccc12)C(=O)N[C@@H](Cc1ccccc1)C(N)=O` [compound 19, H-Dmt-Pro-Trp-Phe-NH2, [Dmt^1]EM-1], the half-maximal inhibitory concentration (IC50) on μ-opioid receptor (GPI) was 0.27 nM; at δ-opioid receptor (MVD), above 10000 nM. Further, the Ki at δ-opioid receptor is 5.6 nM; at μ-opioid receptor, 0.054 nM.

Consider `Cc1cc(O)cc(C)c1C[C@H](N)C(=O)N1CCC[C@H]1C(=O)N[C@@H](Cc1ccccc1)C(=O)N[C@@H](Cc1ccccc1)C(N)=O` [compound 20, H-Dmt-Pro-Phe-Phe-NH2, [Dmt^1]EM-2], for which the IC50 at μ-opioid receptor (GPI) was 0.07 nM; at δ-opioid receptor (MVD) it was 1.87 nM. For the same molecule, the Ki on δ-opioid receptor was 28.2 nM; on μ-opioid receptor, 0.15 nM.

As to `Cc1cc(O)cc(C)c1CC(N)C(=O)N1CCCC1C(=O)NC(Cc1ccccc1)C(N)=O` (stereo not drawn) [compound 21, H-Dmt-Pro-Phe-NH2] (H-[Dmt]-Pro-Phe-NH2; configuration not given here), the IC50 at μ-opioid receptor (GPI) is 2.33 nM; on δ-opioid receptor (MVD), 113 nM. For the same molecule, the values for the Ki at δ-opioid receptor and on μ-opioid receptor were 53.2 nM and 0.12 nM, respectively.

`Cc1cc(O)cc(C)c1C[C@H](N)C(=O)N1CCC[C@H]1C(=O)N[C@@H](Cc1ccccc1)C(=O)NCCc1ccccc1` [compound 22, H-Dmt-Pro-Phe-NH-C2H4-Ph] (H-[Dmt]-Pro-Phe-NHPhenethyl): the IC50 on μ-opioid receptor (GPI) was 5.03 nM; on δ-opioid receptor (MVD), above 10000 nM. Further, the figures for the Ki on δ-opioid receptor and on μ-opioid receptor were 18 nM and 0.51 nM, respectively.

Take `Cc1cc(O)cc(C)c1C[C@H](N)C(=O)N1CCC[C@H]1C(=O)N[C@@H](Cc1ccccc1)C(=O)NCc1ccccc1` [compound 23, H-Dmt-Pro-Phe-NH-Bzl] (H-[Dmt]-Pro-Phe-NHBn): the IC50 is 22 nM on μ-opioid receptor (GPI) and above 10000 nM on δ-opioid receptor (MVD). In addition, the figures for the Ki on δ-opioid receptor and on μ-opioid receptor were 13.8 nM and 0.52 nM, respectively.

Take `Cc1cc(O)cc(C)c1C[C@H](N)C(=O)N1CCC[C@H]1C(=O)N[C@@H](Cc1ccccc1)C(=O)Nc1ccccc1` [compound 24, H-Dmt-Pro-Phe-NH-Ph] (H-[Dmt]-Pro-Phe-NHPh): the results for the IC50 at μ-opioid receptor (GPI) and at δ-opioid receptor (MVD) were 37.7 nM and above 10000 nM, respectively. For the same molecule, the Ki at δ-opioid receptor is 20.6 nM; at μ-opioid receptor, 1.11 nM.

Regarding `Cc1cc(O)cc(C)c1C[C@H](N)C(=O)N1CCC[C@H]1C(=O)N[C@@H](Cc1ccccc1)C(=O)Nc1cccnc1` [compound 26, H-Dmt-Pro-Phe-NH-3-Pyr], the figures for the IC50 on μ-opioid receptor (GPI) and on δ-opioid receptor (MVD) were 72.8 nM and above 10000 nM, respectively. Moreover, the results for the Ki at δ-opioid receptor and at μ-opioid receptor were 287 nM and 0.17 nM, respectively.

Take `Cc1cc(O)cc(C)c1C[C@H](N)C(=O)N1CCC[C@H]1C(=O)N[C@@H](Cc1ccccc1)C(=O)Nc1ccccn1` [compound 27, H-Dmt-Pro-Phe-NH-2-Pyr]: the values for the IC50 at μ-opioid receptor (GPI) and at δ-opioid receptor (MVD) were 15 nM and above 10000 nM, respectively. Moreover, the Ki at δ-opioid receptor is 157 nM; on μ-opioid receptor, 0.13 nM.

In the case of `Cc1cc(O)cc(C)c1C[C@H](N)C(=O)N1CCC[C@H]1C(=O)N[C@@H](Cc1ccccc1)C(=O)Nc1cccc2ccccc12` [compound 28, H-Dmt-Pro-Phe-NH-1-Nph], the IC50 at μ-opioid receptor (GPI) is 0.49 nM; at δ-opioid receptor (MVD), 5.47 nM. Also, the Ki at δ-opioid receptor is 19.9 nM.

For the molecule `Cc1cc(O)cc(C)c1C[C@H](N)C(=O)N1CCC[C@H]1C(=O)N[C@@H](Cc1ccccc1)C(=O)Nc1cnc2ccccc2c1` [compound 29, H-Dmt-Pro-Phe-NH-3-Qln], the IC50 at μ-opioid receptor (GPI) is 9.14 nM; at δ-opioid receptor (MVD) it was above 10000 nM. In addition, the Ki on δ-opioid receptor is 190 nM; at μ-opioid receptor it was 0.33 nM.

As for `Cc1cc(O)cc(C)c1C[C@H](N)C(=O)N1CCC[C@H]1C(=O)N[C@@H](Cc1ccccc1)C(=O)Nc1cccc2ncccc12` [compound 30, H-Dmt-Pro-Phe-NH-5-Qln], the IC50 is 0.26 nM on μ-opioid receptor (GPI) and 0.616 nM on δ-opioid receptor (MVD). The Ki at δ-opioid receptor is 30 nM; at μ-opioid receptor it was 0.11 nM.

On to `Cc1cc(O)cc(C)c1C[C@H](N)C(=O)N1CCC[C@H]1C(=O)N[C@@H](Cc1ccccc1)C(=O)Nc1ccc2ncccc2c1` [compound 31, H-Dmt-Pro-Phe-NH-6-Qln], for which the IC50 on μ-opioid receptor (GPI) was 6.21 nM; on δ-opioid receptor (MVD) it was above 10000 nM. Also, the Ki on δ-opioid receptor was 46.6 nM; at μ-opioid receptor, 0.22 nM.

For the molecule `Cc1cc(O)cc(C)c1C[C@H](N)C(=O)N1CCC[C@H]1C(=O)N[C@@H](Cc1ccccc1)C(=O)Nc1cccc2cccnc12` [compound 32, H-Dmt-Pro-Phe-NH-8-Qln], the IC50 at μ-opioid receptor (GPI) was 445 nM; at δ-opioid receptor (MVD), 2980 nM. Besides, the figures for the Ki at δ-opioid receptor and at μ-opioid receptor were 33.1 nM and 0.49 nM, respectively.

Turning to `Cc1cc(O)cc(C)c1C[C@H](N)C(=O)N1CCC[C@H]1C(=O)N[C@@H](Cc1ccccc1)C(=O)Nc1cccc2cnccc12` [compound 33, H-Dmt-Pro-Phe-NH-5-Isq], the figures for the IC50 at μ-opioid receptor (GPI) and on δ-opioid receptor (MVD) were 0.94 nM and above 10000 nM, respectively. The values for the Ki on δ-opioid receptor and on μ-opioid receptor were 98.3 nM and 0.19 nM, respectively.

As to `CCc1cc(O)cc(C)c1C[C@H](N)C(=O)N1CCC[C@H]1C(=O)N[C@@H](Cc1ccccc1)C(=O)N[C@@H](Cc1ccccc1)C(N)=O` [compound 35, H-Emt-Pro-Phe-Phe-NH2], the results for the IC50 on μ-opioid receptor (GPI) and at δ-opioid receptor (MVD) were 0.623 nM and 1.08 nM, respectively. The Ki at δ-opioid receptor was 55.7 nM; at μ-opioid receptor it was 0.063 nM.

`Cc1cc(O)cc(C(C)C)c1C[C@H](N)C(=O)N1CCC[C@H]1C(=O)N[C@@H](Cc1ccccc1)C(=O)N[C@@H](Cc1ccccc1)C(N)=O` [compound 36, H-Imt-Pro-Phe-Phe-NH2]: the figures for the IC50 at μ-opioid receptor (GPI) and on δ-opioid receptor (MVD) were 10.6 nM and 601 nM, respectively. The Ki at δ-opioid receptor is 190 nM; on μ-opioid receptor it was 0.15 nM.

On to `CCc1cc(O)cc(CC)c1C[C@H](N)C(=O)N1CCC[C@H]1C(=O)N[C@@H](Cc1ccccc1)C(=O)N[C@@H](Cc1ccccc1)C(N)=O` [compound 37, H-Det-Pro-Phe-Phe-NH2], for which the figures for the IC50 on μ-opioid receptor (GPI) and at δ-opioid receptor (MVD) were 0.903 nM and 47.1 nM, respectively. The Ki was 69.7 nM on δ-opioid receptor and 0.084 nM on μ-opioid receptor.

Consider `Cc1cc(C)cc(C[C@H](NC(=O)[C@@H]2CCCN2C(=O)[C@@H](N)Cc2c(C)cc(O)cc2C)C(=O)N[C@@H](Cc2ccccc2)C(N)=O)c1` [compound 41, H-Dmt-Pro-^3,5Dmp-Phe-NH2], for which the IC50 is 14.4 nM on μ-opioid receptor (GPI) and above 10000 nM on δ-opioid receptor (MVD). Moreover, the results for the Ki at δ-opioid receptor and at μ-opioid receptor were 11.6 nM and 0.11 nM, respectively.

In the case of `Cc1cccc(C)c1C[C@H](NC(=O)[C@@H]1CCCN1C(=O)[C@@H](N)Cc1c(C)cc(O)cc1C)C(=O)N[C@@H](Cc1ccccc1)C(N)=O` [compound 42, H-Dmt-Pro-Dmp-Phe-NH2], the IC50 was 0.12 nM on μ-opioid receptor (GPI) and above 10000 nM at δ-opioid receptor (MVD). Besides, the Ki on δ-opioid receptor is 2.27 nM; on μ-opioid receptor, 0.069 nM.

As for `Cc1cc(O)cc(C)c1C[C@H](NC(=O)[C@@H]1CCCN1C(=O)[C@@H](N)Cc1c(C)cc(O)cc1C)C(=O)N[C@@H](Cc1ccccc1)C(N)=O` [compound 43, H-Dmt-Pro-Dmt-Phe-NH2] (H-[Dmt]P[Dmt]F-NH2), the IC50 was 1.94 nM on μ-opioid receptor (GPI) and above 10000 nM at δ-opioid receptor (MVD). Moreover, the Ki was 80.8 nM on δ-opioid receptor and 0.092 nM at μ-opioid receptor.

Regarding `CCc1cccc(C)c1CC(NC(=O)C1CCCN1C(=O)C(N)Cc1c(C)cc(O)cc1C)C(=O)NC(Cc1ccccc1)C(N)=O` (stereo not drawn) [compound 45, H-Dmt-Pro-Emp-Phe-NH2], the IC50 was 0.17 nM on μ-opioid receptor (GPI) and 0.51 nM on δ-opioid receptor (MVD). Further, the Ki on δ-opioid receptor was 3.03 nM; on μ-opioid receptor it was 0.21 nM.

Take `Cc1cc(O)cc(C)c1C[C@H](N)C(=O)N1CCC[C@H]1C(=O)N[C@@H](Cc1c(C)cccc1C(C)C)C(=O)N[C@@H](Cc1ccccc1)C(N)=O` [compound 46, H-Dmt-Pro-Imp-Phe-NH2]: the IC50 on μ-opioid receptor (GPI) was 0.2 nM; at δ-opioid receptor (MVD), 5.56 nM. Besides, the Ki at δ-opioid receptor is 4.61 nM; at μ-opioid receptor it was 0.32 nM.

Turning to `C=CCN[C@@H](Cc1c(C)cc(O)cc1C)C(=O)N1CCC[C@H]1C(=O)N[C@@H](Cc1c[nH]c2ccccc12)C(=O)N[C@@H](Cc1ccccc1)C(N)=O` [compound 47, [N-allyl-Dmt^1]EM-1], the IC50 at μ-opioid receptor (GPI) and at δ-opioid receptor (MVD) was above 10000 nM each time. The Ki is 10.3 nM at δ-opioid receptor and 0.26 nM on μ-opioid receptor.

With `C=CCN[C@@H](Cc1c(C)cc(O)cc1C)C(=O)N1CCC[C@H]1C(=O)N[C@@H](Cc1ccccc1)C(=O)N[C@@H](Cc1ccccc1)C(N)=O` [compound 48, [N-allyl-Dmt^1]EM-2], the IC50 on μ-opioid receptor (GPI) and on δ-opioid receptor (MVD) was above 10000 nM throughout. The Ki on δ-opioid receptor is 560 nM; on μ-opioid receptor, 0.45 nM.

For `Cc1cc(O)cc(C)c1CC(N)C(=O)NCCc1[nH]c(=O)c(CCNC(=O)C(N)Cc2c(C)cc(O)cc2C)nc1C` (centres unmarked) [compound 56, 3,6-bis[Dmt-NH(CH2)2]-5-methyl-2(1H)-pyrazinone], the IC50 at μ-opioid receptor (GPI) was 12.9 nM; on δ-opioid receptor (MVD) it was above 10000 nM. Further, at δ-opioid receptor, the Ki was 7.26 nM.

Take `Cc1cc(O)cc(C)c1C[C@H](N)C(=O)N1Cc2ccccc2C[C@H]1C(=O)NCCCCCCNC(=O)[C@@H]1Cc2ccccc2CN1C(=O)[C@@H](N)Cc1c(C)cc(O)cc1C` [compound 67, bis[Dmt-Tic-NH]hexane]: the Ki at δ-opioid receptor was 0.129 nM; on μ-opioid receptor, 1.79 nM. For the same molecule, the IC50 at δ-opioid receptor (MVD) is above 10000 nM.

As to H-Dmt-Pro-Phe-NH-4-Pyr [compound 25], the values for the IC50 at μ-opioid receptor (GPI) and on δ-opioid receptor (MVD) were 11.8 nM and above 10000 nM, respectively. For the same molecule, on δ-opioid receptor, the Ki was 52.6 nM.
